The source of these data is PubChem BioAssay (NCI).

Test systems include T-47D breast; K-562 leukemia; UACC-257 melanoma; HCC-2998 colon; A549 NSCLC; MDA-MB-231 breast; MOLT-4 leukemia; LOX IMVI melanoma; OVCAR-4 ovarian; HS 578T breast.
Experiment in all cases: NCI tumour cell line growth inhibition, 48 h

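Each compound was tested at five concentrations against cells in 96-well plates for 48 hours. At the GI50, growth is halved. TGI: total growth inhibition.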

Take `O=C(CCC(C(=O)c1ccccc1)c1ccccc1)c1ccccc1` (centres undefined): the GI50 was 7.69 µM in the assay with T-47D breast; 3.75 µM with K-562 leukemia; 17.5 µM in the assay on UACC-257 melanoma; 29.7 µM in the assay with HCC-2998 colon; 7.29 µM in the assay on A549 NSCLC; 23.4 µM in the assay on MDA-MB-231 breast. Moreover, the GI50 in the assay on MOLT-4 leukemia is 5.75 µM; in the assay on LOX IMVI melanoma it was 20.7 µM; in the assay on OVCAR-4 ovarian it was 16.5 µM; in the assay with HS 578T breast, 11.8 µM. Further, the TGI in the assay with T-47D breast, with K-562 leukemia, in the assay on UACC-257 melanoma, with HCC-2998 colon, in the assay on A549 NSCLC and with MDA-MB-231 breast was more than 100 µM in each case. Further, the TGI with MOLT-4 leukemia, with LOX IMVI melanoma, in the assay on OVCAR-4 ovarian and in the assay on HS 578T breast was more than 100 µM each time.

Regarding `CCCCN(CCCC)CCCn1c(=O)c2c3ccccc3n(C)c2n2nnc(-c3ccccc3)c12`, the GI50 in the assay with T-47D breast is 54.6 µM; in the assay with K-562 leukemia it was 13.9 µM; with UACC-257 melanoma, 28.7 µM; in the assay with HCC-2998 colon, 20.3 µM; with A549 NSCLC it was 43.9 µM; in the assay with MDA-MB-231 breast, 36.6 µM. The GI50 was 13.9 µM in the assay on MOLT-4 leukemia, 28.4 µM with LOX IMVI melanoma, 17.6 µM in the assay with OVCAR-4 ovarian and 39.9 µM in the assay with HS 578T breast. Besides, the TGI in the assay on T-47D breast is more than 100 µM; in the assay with K-562 leukemia it was more than 100 µM; with UACC-257 melanoma, 82.5 µM; in the assay on HCC-2998 colon it was more than 100 µM; in the assay on A549 NSCLC it was more than 100 µM; in the assay on MDA-MB-231 breast, more than 100 µM. In addition, the TGI in the assay with MOLT-4 leukemia was more than 100 µM; in the assay with LOX IMVI melanoma, more than 100 µM; in the assay with OVCAR-4 ovarian it was 83.9 µM; with HS 578T breast it was more than 100 µM.

On to `C[C@H]1[C@H]2[C@H]3CC[C@@H]4[C@@]5(C)C/C(=C/c6cccnc6)C(=O)C(C)(C)[C@@H]5CC[C@@]4(C)[C@]3(C)CC[C@]23CO[C@]1(C)[C@@H](C(=O)/C=C\c1cccnc1)C3`, for which the GI50 with T-47D breast was 1.98 µM; with K-562 leukemia, 0.151 µM; with UACC-257 melanoma, 1.74 µM; in the assay on HCC-2998 colon, 0.868 µM; with A549 NSCLC, 1.22 µM; in the assay on MDA-MB-231 breast, 1.27 µM. Also, the GI50 in the assay with MOLT-4 leukemia is 0.524 µM; in the assay on LOX IMVI melanoma it was 0.783 µM; in the assay on OVCAR-4 ovarian, 1.5 µM; with HS 578T breast, 1.44 µM. Further, the TGI was more than 50 µM in the assay on T-47D breast; more than 50 µM in the assay on K-562 leukemia; 9.85 µM in the assay on UACC-257 melanoma; 1.67 µM in the assay on HCC-2998 colon; 3.29 µM with A549 NSCLC; 8.01 µM with MDA-MB-231 breast. For the same molecule, the results for the TGI in the assay on LOX IMVI melanoma, with OVCAR-4 ovarian and with HS 578T breast were 1.57 µM, more than 50 µM and 7.4 µM, respectively.

Consider `COc1ccc(-c2c(-c3cc(OC)c(OC)c(OC)c3)noc2N)cc1`, for which the GI50 in the assay on T-47D breast was 9.91 µM; in the assay with K-562 leukemia it was less than 0.01 µM; with UACC-257 melanoma it was less than 0.01 µM; in the assay on HCC-2998 colon, 0.0197 µM; with A549 NSCLC, less than 0.0124 µM; in the assay with MDA-MB-231 breast, 0.06 µM. Also, the GI50 was 0.0312 µM with MOLT-4 leukemia, less than 0.0141 µM with LOX IMVI melanoma, 0.0249 µM in the assay with OVCAR-4 ovarian and less than 0.0104 µM in the assay on HS 578T breast. Further, the TGI was more than 100 µM in the assay with T-47D breast; more than 100 µM in the assay with K-562 leukemia; more than 100 µM in the assay with UACC-257 melanoma; 25.1 µM in the assay on HCC-2998 colon; more than 100 µM in the assay on A549 NSCLC; 90.1 µM with MDA-MB-231 breast. Moreover, the TGI with MOLT-4 leukemia was 10.4 µM; in the assay with LOX IMVI melanoma it was more than 100 µM; with OVCAR-4 ovarian, 57.5 µM; with HS 578T breast, more than 75.9 µM.

Regarding `N#CS.N=C=S.N=C=S.[Cu+2].[NH2-].[NH2-].[NH2-].[NH2-].c1ccc2ncccc2c1`, the GI50 with T-47D breast was more than 100 µM; in the assay with K-562 leukemia, more than 100 µM; with UACC-257 melanoma, more than 100 µM; in the assay on HCC-2998 colon it was 83.9 µM; in the assay on A549 NSCLC, 20.4 µM; with MDA-MB-231 breast, 38.7 µM. The GI50 is more than 100 µM in the assay on MOLT-4 leukemia, 43.3 µM in the assay with LOX IMVI melanoma, 20.6 µM in the assay on OVCAR-4 ovarian and 29.4 µM in the assay with HS 578T breast. Also, the TGI is more than 100 µM in the assay on T-47D breast; more than 100 µM with K-562 leukemia; more than 100 µM in the assay on UACC-257 melanoma; more than 100 µM with HCC-2998 colon; 51.5 µM with A549 NSCLC; 84.2 µM in the assay with MDA-MB-231 breast. The TGI was more than 100 µM in the assay with MOLT-4 leukemia, more than 100 µM with LOX IMVI melanoma, 43.4 µM in the assay on OVCAR-4 ovarian and more than 100 µM in the assay with HS 578T breast.

Consider `CCN(CC)CCCC(C)N=c1cc(Nc2cc(=NC(C)CCCN(CC)CC)c3cc(OC)ccc3o2)oc2ccc(OC)cc12` (centres undefined), for which the GI50 with T-47D breast was 2.92 µM; with K-562 leukemia, 1.19 µM; in the assay on UACC-257 melanoma it was 0.872 µM; in the assay with HCC-2998 colon, 1.85 µM; in the assay with A549 NSCLC, 0.849 µM; in the assay on MDA-MB-231 breast it was 0.666 µM. In addition, the GI50 was 0.725 µM in the assay on MOLT-4 leukemia, 1.02 µM in the assay with LOX IMVI melanoma, 0.723 µM in the assay on OVCAR-4 ovarian and 3.33 µM with HS 578T breast. In addition, the TGI in the assay with T-47D breast came to 13.2 µM; in the assay on K-562 leukemia, 4.76 µM; with UACC-257 melanoma it was 1.67 µM; in the assay on HCC-2998 colon it was 7.14 µM; in the assay with A549 NSCLC it was 1.87 µM; in the assay with MDA-MB-231 breast, 1.88 µM. Further, the TGI in the assay with MOLT-4 leukemia was found to be 2.93 µM; in the assay on LOX IMVI melanoma, 2.29 µM; in the assay with OVCAR-4 ovarian, 1.71 µM; in the assay on HS 578T breast, 14.8 µM.

On to `CC1=C([Te]c2ccc(O)cc2)C(=O)c2ccccc2C1=O`, for which the GI50 with T-47D breast was 1.1 µM; in the assay with K-562 leukemia, 1.93 µM; in the assay on UACC-257 melanoma, 2.91 µM; in the assay on HCC-2998 colon, 2.88 µM; in the assay with A549 NSCLC it was 0.404 µM; with MDA-MB-231 breast, 1.89 µM. The GI50 in the assay on MOLT-4 leukemia is 0.907 µM; in the assay with LOX IMVI melanoma, 1.69 µM; in the assay on OVCAR-4 ovarian, 1.95 µM; with HS 578T breast it was 1.83 µM. Besides, the TGI in the assay on T-47D breast was 3.25 µM; in the assay with K-562 leukemia, 4.36 µM; with UACC-257 melanoma, 10.4 µM; in the assay on HCC-2998 colon, 9.66 µM; in the assay on A549 NSCLC, 4.18 µM; in the assay on MDA-MB-231 breast it was 5.4 µM. The TGI was found to be 4.3 µM in the assay with MOLT-4 leukemia, 4.35 µM in the assay on LOX IMVI melanoma, 4.38 µM in the assay on OVCAR-4 ovarian and 7.6 µM with HS 578T breast.
